The target in series [1] is Tyrosine-protein kinase Fyn (Homo sapiens, UniProt P06241). As to the kind of experiment: biochemical. The note with it: insect cells. The format is cell-based, Insect cells.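 Further: enzymatic inhibition of Fyn kinase activity measured with Poly(Glu:Tyr) as the phosphorylation substrate; in other assays of this panel Not Active means under 50% inhibition at 10 µM.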
In series [2] the target is T1, Alpha-1D adrenergic receptor (Homo sapiens, UniProt P25100). Further: in other assays of this panel Not Active means under 50% inhibition at 10 µM.
T1 sequence (P25100 whole entry): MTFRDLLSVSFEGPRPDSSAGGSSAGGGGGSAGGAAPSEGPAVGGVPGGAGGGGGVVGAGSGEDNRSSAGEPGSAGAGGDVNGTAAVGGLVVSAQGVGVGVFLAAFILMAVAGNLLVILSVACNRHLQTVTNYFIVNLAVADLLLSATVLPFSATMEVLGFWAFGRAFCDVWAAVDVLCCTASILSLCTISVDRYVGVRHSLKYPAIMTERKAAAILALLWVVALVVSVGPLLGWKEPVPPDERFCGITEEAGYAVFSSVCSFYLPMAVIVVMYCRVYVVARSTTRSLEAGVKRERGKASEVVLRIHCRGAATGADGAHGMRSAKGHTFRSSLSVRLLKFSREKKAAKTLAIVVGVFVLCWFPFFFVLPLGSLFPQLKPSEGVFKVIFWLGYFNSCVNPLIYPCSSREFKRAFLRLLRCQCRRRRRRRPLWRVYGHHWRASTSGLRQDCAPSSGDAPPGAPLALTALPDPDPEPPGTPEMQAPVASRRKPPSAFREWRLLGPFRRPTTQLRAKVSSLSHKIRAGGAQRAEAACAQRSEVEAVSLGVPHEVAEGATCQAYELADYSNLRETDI
The format is cell membranes, HEK293, Membrane. The following applies: hek293.

Another series concerns the target Carbonic anhydrase 2 (Homo sapiens, UniProt P00918). As to the kind of experiment: DRUGMATRIX: Carbonic Anhydrase II enzyme inhibition (substrate: 4-Nitrophenyl acetate (4-NPA)). The format is tissue-based, Erythrocyte. The note with it: Not Active = under 50% inhibition at 10 µM.
For the next series, the target named is T2, Leukotriene C4 synthase (Cavia porcellus, UniProt A6XA80).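 Further: enzyme inhibition assay of leukotriene C4 synthase, using LTA4 as the substrate; in other assays of this panel Not Active means under 50% inhibition at 10 µM.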
T2 sequence (A6XA80 whole entry): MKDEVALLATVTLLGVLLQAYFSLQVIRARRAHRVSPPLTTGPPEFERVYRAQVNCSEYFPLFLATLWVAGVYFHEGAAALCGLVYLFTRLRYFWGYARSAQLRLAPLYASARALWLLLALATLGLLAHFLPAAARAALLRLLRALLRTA
As to the kind of experiment: biochemical. The format is tissue-based, Lung.

The target in series [3] is Mitogen-activated protein kinase 14 (Homo sapiens, UniProt Q16539). Set-up: species or system Escherichia coli.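 Further: inhibition of p38alpha enzyme activity in a biochemical kinase assay, with myelin basic protein serving as substrate; in other assays of this panel Not Active means under 50% inhibition at 10 µM.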
Mitogen-activated protein kinase 14, sequence (Q16539 whole entry): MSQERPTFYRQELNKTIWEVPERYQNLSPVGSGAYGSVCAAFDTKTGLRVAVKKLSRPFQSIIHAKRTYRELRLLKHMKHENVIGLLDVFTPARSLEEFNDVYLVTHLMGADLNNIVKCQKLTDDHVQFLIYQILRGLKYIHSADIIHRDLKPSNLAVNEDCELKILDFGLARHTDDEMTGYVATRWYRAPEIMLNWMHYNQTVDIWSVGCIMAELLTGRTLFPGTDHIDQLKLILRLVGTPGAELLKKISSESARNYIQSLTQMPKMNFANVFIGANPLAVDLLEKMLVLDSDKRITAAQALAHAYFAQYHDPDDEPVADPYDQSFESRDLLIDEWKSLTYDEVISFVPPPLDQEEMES
A further series concerns the target T3, Adenosine receptor A3 (Homo sapiens, UniProt P0DMS8).
T3 sequence (P0DMS8 whole entry): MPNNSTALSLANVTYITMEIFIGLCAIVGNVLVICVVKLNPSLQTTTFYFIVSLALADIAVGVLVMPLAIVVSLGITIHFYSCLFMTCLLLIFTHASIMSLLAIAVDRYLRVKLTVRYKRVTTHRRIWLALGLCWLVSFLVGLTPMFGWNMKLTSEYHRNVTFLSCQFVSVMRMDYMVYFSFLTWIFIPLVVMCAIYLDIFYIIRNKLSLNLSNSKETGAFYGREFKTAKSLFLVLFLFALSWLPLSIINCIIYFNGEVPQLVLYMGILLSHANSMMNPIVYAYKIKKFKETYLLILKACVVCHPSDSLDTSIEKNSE
The format is cell membranes, CHO-K1, Membrane.

In the next series the target is Cannabinoid receptor 1 (Homo sapiens, UniProt P21554). The format is cell membranes, Membrane. The note with it: chem-1. Further: in other assays of this panel Not Active means under 50% inhibition at 10 µM.
Cannabinoid receptor 1, sequence (P21554 whole entry): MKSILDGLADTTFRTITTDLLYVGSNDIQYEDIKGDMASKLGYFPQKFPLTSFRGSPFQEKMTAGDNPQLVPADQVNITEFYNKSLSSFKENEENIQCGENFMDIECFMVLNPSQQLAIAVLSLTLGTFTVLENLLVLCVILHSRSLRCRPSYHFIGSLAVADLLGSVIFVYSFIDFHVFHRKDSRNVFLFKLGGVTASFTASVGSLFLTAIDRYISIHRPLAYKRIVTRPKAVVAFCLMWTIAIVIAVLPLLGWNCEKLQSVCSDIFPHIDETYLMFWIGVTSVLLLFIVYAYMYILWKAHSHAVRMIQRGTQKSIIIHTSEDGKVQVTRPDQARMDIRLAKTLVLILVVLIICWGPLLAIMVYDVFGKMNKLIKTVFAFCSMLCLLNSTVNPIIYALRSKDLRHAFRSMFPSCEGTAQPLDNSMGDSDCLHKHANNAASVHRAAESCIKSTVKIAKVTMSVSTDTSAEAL
Another series has as its target T4, Cytochrome P450 2A6 (Homo sapiens, UniProt P11509). Further: in other assays of this panel Not Active means under 50% inhibition at 10 µM.
T4 sequence (P11509 whole entry): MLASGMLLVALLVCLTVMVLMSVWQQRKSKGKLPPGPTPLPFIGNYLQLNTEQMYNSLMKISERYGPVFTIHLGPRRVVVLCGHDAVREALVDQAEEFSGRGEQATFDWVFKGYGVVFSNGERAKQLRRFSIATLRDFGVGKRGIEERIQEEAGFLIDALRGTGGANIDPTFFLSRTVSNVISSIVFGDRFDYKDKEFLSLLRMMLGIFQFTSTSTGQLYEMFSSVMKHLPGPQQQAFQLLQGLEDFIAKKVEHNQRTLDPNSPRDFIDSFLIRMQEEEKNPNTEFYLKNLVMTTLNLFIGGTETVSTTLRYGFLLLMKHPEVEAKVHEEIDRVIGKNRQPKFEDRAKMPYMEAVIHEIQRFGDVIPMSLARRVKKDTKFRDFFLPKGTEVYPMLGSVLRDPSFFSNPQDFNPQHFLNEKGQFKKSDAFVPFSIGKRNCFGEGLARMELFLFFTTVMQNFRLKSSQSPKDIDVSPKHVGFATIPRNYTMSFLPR
The note with it: bti-tn-5b1-4.

A short description of series [4]: DRUGMATRIX: Sigma2 radioligand binding (ligand: [3H] Ifenprodil). The format is cell membranes, Rattus norvegicus, Wistar, Brain, Membrane. The following applies: Not Active = under 50% inhibition at 10 µM.
The target of another series is T5, Substance-K receptor (Homo sapiens, UniProt P21452). Further: in other assays of this panel Not Active means under 50% inhibition at 10 µM.
T5 sequence (P21452 whole entry): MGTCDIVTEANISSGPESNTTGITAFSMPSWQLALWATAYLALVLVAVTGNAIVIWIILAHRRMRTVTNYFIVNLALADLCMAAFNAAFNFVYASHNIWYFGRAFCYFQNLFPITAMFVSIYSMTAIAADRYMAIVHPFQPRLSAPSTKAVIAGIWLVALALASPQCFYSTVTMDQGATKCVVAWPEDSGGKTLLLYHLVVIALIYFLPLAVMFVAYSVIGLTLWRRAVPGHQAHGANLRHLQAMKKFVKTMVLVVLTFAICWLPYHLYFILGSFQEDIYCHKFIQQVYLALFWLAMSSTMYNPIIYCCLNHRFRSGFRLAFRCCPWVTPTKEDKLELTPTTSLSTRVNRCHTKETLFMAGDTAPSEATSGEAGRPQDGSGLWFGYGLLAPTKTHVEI
The format is cell membranes, CHO, Membrane.

In the next series the target is Cytochrome P450 2C9 (Homo sapiens, UniProt P11712). The note with it: bti-tn-5b1-4. Further: in other assays of this panel Not Active means under 50% inhibition at 10 µM.
Cytochrome P450 2C9, sequence (P11712 whole entry): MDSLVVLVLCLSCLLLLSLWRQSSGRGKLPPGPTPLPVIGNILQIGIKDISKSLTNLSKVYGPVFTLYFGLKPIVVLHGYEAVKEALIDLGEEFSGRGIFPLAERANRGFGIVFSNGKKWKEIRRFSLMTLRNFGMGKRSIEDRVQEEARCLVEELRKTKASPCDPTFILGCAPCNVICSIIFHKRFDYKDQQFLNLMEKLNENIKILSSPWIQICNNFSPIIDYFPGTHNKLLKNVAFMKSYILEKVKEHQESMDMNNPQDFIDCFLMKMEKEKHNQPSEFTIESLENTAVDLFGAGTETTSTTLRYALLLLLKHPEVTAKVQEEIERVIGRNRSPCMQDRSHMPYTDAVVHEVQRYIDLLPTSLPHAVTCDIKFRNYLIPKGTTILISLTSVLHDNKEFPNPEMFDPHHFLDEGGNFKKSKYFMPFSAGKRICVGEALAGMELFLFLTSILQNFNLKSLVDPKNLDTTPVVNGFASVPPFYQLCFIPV
The nature of series [5]: DRUGMATRIX: GABAA, Muscimol, Central radioligand binding (ligand: [3H] Muscimol). The note with it: Not Active = under 50% inhibition at 10 µM. The format is cell membranes, Rattus norvegicus, Wistar, Brain, Membrane.
A further series has as its target Acetylcholinesterase (Homo sapiens, UniProt P22303). As to the kind of experiment: DRUGMATRIX: Acetylcholinesterase enzyme inhibition (substrate: acetylthiocholine). The format is cell-based, HEK293. The note with it: hek293; Not Active = under 50% inhibition at 10 µM.

Structures are written as SMILES.

Tyrosine-protein kinase Fyn, sequence (P06241 whole entry): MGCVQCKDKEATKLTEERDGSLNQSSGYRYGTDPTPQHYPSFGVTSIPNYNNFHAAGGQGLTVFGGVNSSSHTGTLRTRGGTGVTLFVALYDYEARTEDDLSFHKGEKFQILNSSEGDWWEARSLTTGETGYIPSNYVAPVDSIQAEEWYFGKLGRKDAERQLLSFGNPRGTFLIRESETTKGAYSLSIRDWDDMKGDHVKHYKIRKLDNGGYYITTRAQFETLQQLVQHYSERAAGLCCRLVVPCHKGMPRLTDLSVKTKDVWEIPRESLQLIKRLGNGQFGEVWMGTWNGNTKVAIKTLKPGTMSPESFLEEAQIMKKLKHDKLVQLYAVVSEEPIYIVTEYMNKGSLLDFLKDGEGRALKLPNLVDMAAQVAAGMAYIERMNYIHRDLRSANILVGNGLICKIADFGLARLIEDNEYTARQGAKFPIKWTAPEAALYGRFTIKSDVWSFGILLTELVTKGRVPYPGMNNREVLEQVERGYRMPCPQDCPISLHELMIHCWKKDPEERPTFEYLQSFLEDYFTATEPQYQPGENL
Acetylcholinesterase, sequence (P22303 whole entry): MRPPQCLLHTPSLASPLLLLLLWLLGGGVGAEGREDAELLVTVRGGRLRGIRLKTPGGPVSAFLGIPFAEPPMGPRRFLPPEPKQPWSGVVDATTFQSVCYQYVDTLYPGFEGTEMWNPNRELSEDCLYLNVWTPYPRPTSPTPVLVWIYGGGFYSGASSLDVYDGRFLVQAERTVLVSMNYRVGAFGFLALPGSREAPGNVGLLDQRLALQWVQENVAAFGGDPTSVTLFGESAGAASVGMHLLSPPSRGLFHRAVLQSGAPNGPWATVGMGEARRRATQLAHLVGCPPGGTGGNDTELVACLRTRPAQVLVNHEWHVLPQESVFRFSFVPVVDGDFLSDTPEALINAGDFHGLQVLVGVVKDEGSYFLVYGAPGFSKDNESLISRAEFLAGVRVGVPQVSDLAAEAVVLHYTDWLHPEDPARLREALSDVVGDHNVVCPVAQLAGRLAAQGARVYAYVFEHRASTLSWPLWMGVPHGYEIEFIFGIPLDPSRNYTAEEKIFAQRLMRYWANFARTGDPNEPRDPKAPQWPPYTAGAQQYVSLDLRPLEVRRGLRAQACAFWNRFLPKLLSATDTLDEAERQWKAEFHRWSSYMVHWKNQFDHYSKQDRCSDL

A word on the IC50: it is the point on the concentration scale where inhibition reaches its midpoint. As usually defined, the Ki is the dissociation constant of the complex between target and ligand, obtained from inhibition or displacement. For `CCCC[C@@H](CC)COC(=O)c1ccccc1C(=O)OC[C@@H](CC)CCCC` [BIS(2-ETHYLHEXYL)PHTHALATE], the IC50 entry in [1] is “Not Active”; in [2] it was “Not Active”; on Carbonic anhydrase 2 (read-out: IC50) it was 66.9 µM; against Leukotriene C4 synthase, “Not Active”; in series [3] it was “Not Active”; against Adenosine receptor A3 (cho-k1), “Not Active”. Besides, the 50% inhibitory concentration (IC50) result (against Cannabinoid receptor 1; against Cytochrome P450 2A6; in series [4]; against Substance-K receptor (cho); against Cytochrome P450 2C9; in series [5]) was “Not Active” each time. In addition, the IC50 entry at Acetylcholinesterase is reported as “Not Active”. The Ki entry (on Cytochrome P450 2A6; in [4]; at Cytochrome P450 2C9; in series [5]) was “Not Active” throughout.

As to `Oc1c(Cl)cc(Cl)cc1Sc1cc(Cl)cc(Cl)c1O` [BITHIONOL], the IC50 result in series [1] is “Not Active”; in [2], “Not Active”; on Carbonic anhydrase 2 (erythrocyte), “Not Active”; on Leukotriene C4 synthase it was “Not Active”; in series [3] (read-out: IC50), 318 nM; on Adenosine receptor A3 (read-out: IC50) it was 829 nM. The IC50 entry is “Not Active” on Cannabinoid receptor 1; “Not Active” at Cytochrome P450 2A6; “Not Active” in series [4]; 4.66 µM at Substance-K receptor (read-out: IC50); “Not Active” on Cytochrome P450 2C9; “Not Active” in [5]. In addition, the IC50 entry against Acetylcholinesterase is “Not Active”. Besides, the Ki on Adenosine receptor A3 (read-out: Ki) was 468 nM; on Cytochrome P450 2A6, “Not Active”; in series [4] it was “Not Active”; at Substance-K receptor (read-out: Ki) it was 1550 nM; at Cytochrome P450 2C9, “Not Active”; in series [5], “Not Active”.

For the compound `Brc1ccccc1` [BROMOBENZENE], the IC50 result (in [1]; in series [2]; at Carbonic anhydrase 2 (erythrocyte); against Leukotriene C4 synthase; in [3]; against Adenosine receptor A3 (cho-k1)) was “Not Active” each time. The IC50 result (against Cannabinoid receptor 1; against Cytochrome P450 2A6; in series [4]; against Substance-K receptor (cho); on Cytochrome P450 2C9; in series [5]) was “Not Active” in each case. Also, on Acetylcholinesterase, the IC50 entry is “Not Active”. For the same compound, the Ki result (on Cytochrome P450 2A6; in [4]; at Cytochrome P450 2C9; in series [5]) was “Not Active” in each case.

On to `CC[C@@]1(O)C(=O)OCc2c1cc1n(c2=O)Cc2cc3ccccc3nc2-1` [CAMPTOTHECIN], for which the IC50 entry (in series [1]; in [2]; against Carbonic anhydrase 2 (erythrocyte); against Leukotriene C4 synthase; in series [3]; at Adenosine receptor A3 (cho-k1)) was “Not Active” in each case. Further, the IC50 entry (on Cannabinoid receptor 1; at Cytochrome P450 2A6; in [4]; on Substance-K receptor (cho); at Cytochrome P450 2C9; in series [5]) was “Not Active” in each case. Also, the IC50 result on Acetylcholinesterase was “Not Active”. Further, the Ki entry (on Cytochrome P450 2A6; in [4]; on Cytochrome P450 2C9; in [5]) was “Not Active” each time.
